One test deals with human PBMCs. The experiment in a line: Cytokine profile in human PBMCs ex vivo (ELISA). Type of test: cell-based. Here is the method: In the present ex vivo experiment, peripheral blood mononuclear cells (PBMCs) from six healthy donors were stimulated with free CpG-A, free CpG-B (7909) or ACM-CpG-B at increasing concentration (0.62, 1.25, 2.5 and 5 μM). Levels of IL-6 and IFNα secreted into culture supernatant was measured by ELISA. […] The ability to induce both cytokines was advantageous as they stimulate DCs to mature and B cells to proliferate and produce antibody, respectively.
Background: An ELISA detects its analyte on a solid surface through an enzyme-linked reagent.

The subject of the next test is C57BL/6 splenocytes. The test is described as follows: Cytokine production by splenocytes in vitro (adjuvant activity). The class given is cell-based, mice. As to conditions: culture supernatant, approximately 20 h, 0.125-0.5 μM. How it is done: It is known that CpG can induce cytokine production by BALB/c splenocytes in vitro. In this experiment adjuvant effect of ACM polymersomes with CpG were studied. The experimental procedure included: • 1. Spleens harvested from three C57BL/6 mice • 2. 3 million splenocytes added to each well of 96-well plate in complete RPMI. • 3. The following treatment groups were used: untreated, free CpG, ACM-CpG and empty ACM, which were incubated approximately 20 h at 37° C. 5% C02. • 4. Collection of culture supernatants and measurement of IL-6 and IL-12p70 which are indicators of adjuvant effect. • 5. The following 96-well plate format was used for measurements (ms) carried out in triplicates (Table 1)

In test [1] the test system is classical dendritic cells (cDCs). The test is described as follows: Activation of classical dendritic cells in inguinal lymph nodes after SC injection. The class given is in vivo, C57BL/6 mice. The following applies: 5 μg SC, inguinal lymph nodes two days after. Here is the method: Class B CpG binds endosomal Toll-like receptor 9 (TLR9) to induce several immunological effects, including activation of dendritic cells (DCs), production of pro-inflammatory cytokines and B cell differentiation and antibody secretion. These attributes make class B CpG valuable as a vaccine adjuvant. In this study, C57BL/6 mice were subcutaneously (SC) injected with 5 μg free murine CpG 1826 or ACM-CpG 1826 to compare their relative abilities to activate classical dendritic cells (cDCs). Two days after, inguinal lymph nodes (which drain the site of injection) were harvested to assess DC activation. […] Moreover, ACM polymersomes alone were non-immunogenic and thus enhanced DC activation was due to efficient delivery of CpG to endosomal TLR9.

The subject of a further test is C57bl/6 mice. The test is described as follows: Immunization with OVA conjugated or encapsulated ACMs, sera tittering by ELISA (Example 13). The following applies: 4 μg of OVA per injection, sera 21 days after the boost. Type of test: in vivo. How it is done: C57bl/6 mice were immunized with different OVA formulations: PBS (negative control), free OVA with or without Sigma Adjuvant System (SAS), OVA encapsulated ACMs or OVA conjugated ACMs. Balb/c mice were immunized with different HA formulations: PBS (negative control), free HA, HA encapsulated ACMs or HA conjugated ACMs. […] All immunizations were performed with a same final amount of antigen within each trial: 5-10 μg OVA/injection/mouse or 100-200 ng HA/injection/mouse. Final bleeds were collected 42 days after prime. ELISA was then performed to assess titers: OVA or HA were coated onto MaxiSorp plates (1 μg/ml in carbonate buffer) overnight. Plates were blocked using 3% BSA in PBS for 1 h at RT. All sera were diluted at 1:100 and incubated on plates for 1 h at RT. After 3 washes with PBS+0.05% Tween 20, secondary antibody anti-mouse IgG HRP coupled was incubated at 1:10,000 dilution for 1 h, RT (room temperature). After 3 washes with PBS/Tween 20 buffer, TMB substrate was added and reaction was stopped using 1M HCl. Optical densities were quantified at 450 nm.
C57bl/6 mice were immunized with the following formulations: a negative control (PBS), free OVA with or without Sigma Adjuvant System (SAS), BD21 encapsulated OVA and BD21 conjugated OVA. […] 21 days after the boost, sera were collected for tittering by ELISA.

Setting [2] is: PBMCs from six healthy donors, 0.62, 1.25, 2.5 and 5 μM.

As for CpG 7909 [CpG-B], in the test on human PBMCs (PBMCs from six healthy donors), the “CpG concentration at which IL-6 levels saturate” value is listed as “around 1.25 μM”. In the test on human PBMCs (setting [2]), the IFNα production result is “little to none was detected” and the “IL-6 secreted into culture supernatant” value is listed as “low to moderate quantities”.

For the molecule CpG ODN1826 [free CpG], in the test with C57BL/6 splenocytes, the IL-6 production result is given as “only detected in free CpG- or ACM-CpG-treated splenocytes” and the “IL-12 (IL-12p70) production” value is “not detected even in neat culture supernatant”. Also, the “CD86 and CD80 activation marker expression on cDC2” value in test [1] is “significant increase in CD86 and CD80 expression on cDC2”.

B1: Ovalbumin (OVA) (protein, listed as Gallus gallus)
chain: MGSIGAASMEFCFDVFKELKVHHANENIFYCPIAIMSALAMVYLGAKDSTRTQINKVVRFDKLPGFGDSIEAQCGTSVNVHSSLRDILNQITKPNDVYSFSLASRLYAEERYPILPEYLQCVKELYRGGLEPINFQTAADQARELINSWVESQTNGIIRNVLQPSSVDSQTAMVLVNAIVFKGLWEKAFKDEDTQAMPFRVTEQESKPVQMMYQIGLFRVASMASEKMKILELPFASGTMSMLVLLPDEVSGLEQLESIINFEKLTEWTSSNVMEERKIKVYLPRMKMEEKYNLTSVLMAMGITDVFSSSANLSGISSAESLKISQAVHAAHAEINEAGREVVGSAEAGVDAASVSEEFRADHPFLFCIKHIATNAVLFFGRCVSP
On to B1, for which, in the test on C57bl/6 mice, the “IgG response / titer against OVA (ELISA)” value was “not able to elicit an IgG response”.

Values taken from patent US20240108720A1, “SOLE USE OF POLYMERSOME ASSOCIATED ADJUVANT FOR STIMULATING AN IMMUNE RESPONSE” (priority 2021, published 2024).
